Tests used:
[1] = reported in the literature; cited from earlier work
[2] = Kellner et al., Nature (1967); cited from earlier work
[3] = Stability tests (storage, analysed by XRPD); type: physicochemical
Protocol: The sample was stored in the following conditions (a) 25° C. and 60% RH for 7 days and (b) 60° C. and 75% RH for 3 days. The samples were analyzed after the test by XRPD.

[4] = Thermogravimetric analysis (TGA); type: physicochemical; details: heating from 25° C. to 450° C. at 10K/min
Protocol: The analysis was carried out using the Mettler Toledo Stare System with the following parameters. The sample was weighed in an aluminum pan hermetically sealed with an aluminum pierced cover. The analysis was performed heating the sample from 25° C. to 450° C. at 10K/min.

stability of the crystalline form (XRPD after storage) ([3]; 25° C. and 60% RH for 7 days) | stability of the crystalline form (XRPD after storage) ([3]; 60° C. and 75% RH for 3 days) | degradation of the sample (TGA profile) [4] | Compound | solubility [1] | antitumor effect [2]
 |  |  | O[C@H]([C@H](O)[C@@H](O)CBr)[C@H](O)CBr [DBD, 1,6-dibromo-1,6-dideoxy-dulcitol] | poorly soluble | selective a vigorous antitumor effect
stable | stable | approximately 170 °C | O[C@H]([C@H](O)[C@@H](O)CBr)[C@H](O)CBr [crystalline DBD polymorph, 1,6-dibromo-1,6-dideoxy-dulcitol] |  | 

From patent US11312675B2, “Crystalline polymorphs of 1,6-dibromo-1,6-dideoxy-dulcitol” (Targent, LLC, priority 2015, dated 2022)
